The test system of series [1] is CD62-L receptor expression by human peripheral blood cells (PBLs). Put plainly: T cell homing: expression of CD62-L receptor, flow cytometry. It is filed as cell-based. Particulars: for CD62-L expression (MFI: mean fluorescence intensity) (D) % relative to control / IC50: human PBLs, 72 h; for IC50: % inhibition relative to control, read-out: CD62-L expression (D): IC50 value (concentration at which the compound induces 50% of mycolactone maximal activity); for CD62-L expression (D): corresponding % of mycolactone activity (in brackets): relative to mycolactone (100%). On the procedure:
(D) The effect of mycolactone and variants on T cell homing was assessed through their inhibitory effect on the expression of CD62-L receptor by human peripheral blood cells (PBLs). Human PBLs were isolated from total blood by Ficoll density gradient centrifugation. They were incubated in 96-well plates (10^5 cells/well in RPMI 1640 medium supplemented with 10% fetal calf serum and 2 mM L-Glutamine) with mycolactone or variant for 72 h. Cells were then fixed for 20 min in 4% paraformaldehyde (PFA) and stained with an anti-CD62-L antibody coupled with phycoerythrin in a solution of PBS, BSA 0.5%, saponin 0.05%, then analysed by flow cytometry.

Series [2] deals with epithelial HeLa cell line. Put plainly: Cytopathic activity, MTT assay (effect on global cell metabolic activity). It is filed as cell-based, human. As to the method:
(A) The cytopathic activity of mycolactone and variants was assessed in a [3-(4,5-Dimethylthiazol-2-yl)-2,5-Diphenyltetrazolium Bromide] (MTT) assay, using the epithelial HeLa cell line (ATCC®; CCL-2) as a model. Briefly, HeLa cells were plated in 96-well plates (10^4 cells/well) in Dulbecco's Modified Eagle culture medium supplemented with 10% fetal calf serum and 2 mM L-Glutamine. After 16 h, mycolactone or variants dilutions (final concentration 0.4-8 μM) were added to the wells, and incubated with the cells for 48 h, prior to the addition of MTT at 50 μg/ml. After 4 h, culture supernatants were removed and the formed formazan crystals dissolved in dimethyl sulfoxide (DMSO) for absorbance measurement.
A general note: Protection from cytopathic effect is a common read-out in antiviral testing.

The subject of the next series is T cell trafficking. Particulars: Guenin-Macé et al., 2011; cited from earlier work.
The subject of another series is macrophages. The conditions noted are these: Coutanceau et al., 2005; cited from earlier work.
Series [3] in a line: Formalin-induced acute pain model. Particulars: intraperitoneally 60 minutes before formalin, Mycolactone 0.5 mg/kg; for activity against inflammatory pain (global score of pain, late phase 10-40 min): variant 22 5 mg/kg. The format is in vivo. On the procedure: The analgesic properties of Mycolactone and variant 22 were tested in the formalin-induced acute pain model (Encyclopedia of Psychopharmacology, Volume 2, p. 111).
Briefly, Mycolactone and variant 22 were administered intraperitoneally at 0.5 and 5 mg/kg respectively, 60 minutes before the subcutaneous injection of 10 μl of a 5% formalin solution of the right hind-leg. Two negative control groups, injected with PBS (neutral) or ethanol vehicle (vehicle) were tested in the same conditions. A group injected with 3 mg/kg morphin 15 minutes before formalin injection was used as a positive reference.
The time spent in licking/biting and the number of jumps during the early phase (0-5 min) and the late phase (10-40 min) were recorded, as indicators of acute and inflammatory pain, respectively. The graphs in FIG. 5 compare the global score of pain (rank sum of licking/biting time and jump number) in the five groups of animals (Mann-Whitney test on trimmed means; n≧6; *P<0.05 **P<0.01 vs. neutral; # P<0.05, # P<0.01 vs. vehicle.

Another series concerns dendritic cells. Particulars: Coutanceau et al., 2007; cited from earlier work.
The test system of series [4] is IL-2 production by Jurkat T cells. In words: Immunosuppressive activity: activation-induced IL-2 production, ELISA. The conditions noted are these: for Cytokine production (M.A.: mean absorbance) (C) % relative to control / IC50: Jurkat T cells; for Cytokine production (M.A.: mean absorbance) (C) % relative to control: PMA + calcium ionophore, IL-2 ELISA; for IC50: IL-2, % inhibition relative to control, read-out: Cytokine production (C): IC50 value (concentration at which the compound induces 50% of mycolactone maximal activity); for Cytokine production (C): corresponding % of mycolactone activity (in brackets): relative to mycolactone (100%). The format is cell-based, human. On the procedure:
(C) The immunosuppressive activity of mycolactone and variants was measured on Jurkat T cells (ATCC®; TIB-152™ clone E6-1), as models of human T lymphocytes. Cells were inoculated in 96-well plates (5×10^5 cells/well in RPMI 1640 medium supplemented with 10% fetal calf serum and 2 mM L-Glutamine) then incubated with serial dilutions of the various compounds for 4 h, and stimulated for 20 h with 50 ng/ml phorbol-12-myristate-13-acetate (PMA) and 1 μg/ml calcium ionophore. The production of IL-2 was then assessed in culture supernatants by ELISA.
In general terms: An ELISA detects its analyte on a solid surface through an enzyme-linked reagent.

Another series has as its system HeLa cell. Put plainly: Cytotoxicity by Trypan Blue dye exclusion (cell viability). It is filed as cell-based, human. The conditions noted are these: at concentrations <16 μM. As to the method:
(B) HeLa cell death being negligible in the concentration and time frame conditions used in (A), the cytotoxicity of 16 μM mycolactone and variants was evaluated after 48 h of incubation by cell exclusion of the Trypan Blue dye. Here, one part of Trypan blue (0.4% in phosphate-buffered saline PBS) was mixed with one part cell suspension (recovered from cell culture wells by trypsin treatment). The mixture was incubated for 3 min at room temperature and unstained (viable) and stained (nonviable) cells counted separately with a hemacytometer.

Read-outs that look alike come from different tables or passages of the source. A value given as a limit tells only on which side of the number the result lay.

Consider Mycolactone [reference compound], for which the “CD62-L expression (MFI: mean fluorescence intensity) (D) % relative to control” value in series [1] (0.4 μM), in series [1] (4 μM) and in series [1] (8 μM) was 100% throughout. Also, the “expression of CD62-L” value in series [1] (at concentrations >0.4 μM) was “totally suppressed”. In addition, the IC50 is below 30 nM in series [1]; 3500 nM in series [2] (HeLa cells, 48 h, MTT, % inhibition relative to control, read-out: Metabolic activity (A): IC50 value (concentration at which the compound induces 50% of mycolactone maximal activity)); 100 nM in series [4]. Also, the “CD62-L expression (D): corresponding % of mycolactone activity (in brackets)” value in series [1] is recorded as 100%. Besides, the “Metabolic activity (MA: mean absorbance) (A) % relative to control” value is recorded as 70% in series [2] (0.4 μM, HeLa cells, 48 h, MTT); 80% in series [2] (4 μM, HeLa cells, 48 h, MTT); 100% in series [2] (8 μM, HeLa cells, 48 h, MTT). Moreover, the cell viability result in series [2] (at concentrations >0.4 μM) is “markedly reduced cell viability”. Also, in series [2] (relative to mycolactone (100%)), the “Metabolic activity (A): corresponding % of mycolactone activity (in brackets)” value worked out at 100%. Also, in the series with T cell trafficking, the “T cell trafficking in vivo” value is on record as “severely impairs T cell trafficking”. In addition, the “release of inflammatory TNF by macrophages” value in the series on macrophages is listed as “blocks the release of inflammatory TNF”. Further, the “activity against acute pain (global score of pain, early phase 0-5 min)” value in series [3] is given as “significant activity”. In addition, in series [3], the “activity against inflammatory pain (global score of pain, late phase 10-40 min)” value was “significant activity”. Also, the “production of chemotactic signals by dendritic cells” value in the series on dendritic cells was “inhibits the production of chemotactic signals”. The figures for the “Cytokine production (M.A.: mean absorbance) (C) % relative to control” value in series [4] (0.4 μM), in series [4] (4 μM) and in series [4] (8 μM) were 99%, 100% and 100%, respectively. The “activation-induced production of IL-2 by human lymphocytes” value in series [4] (at concentrations >0.4 μM) was “complete blockade”. The “Cytokine production (C): corresponding % of mycolactone activity (in brackets)” value in series [4] was found to be 100%.
On to `CC(=C\C=C\C(C)=C\[C@H](O)[C@@H](O)C[C@H](C)O)/C=C(C)/C=C/C(=O)O[C@H]1CCCC(=O)O[C@@H](C(C)C)C/C=C/C[C@@H]1C` [Compound 22, (6S,7S,9E,12R)-7-methyl-2-oxo-12-(propan-2-yl)-1-oxacyclododec-9-en-6-yl(2E,4E,6E,8E,10E,12S,13S,15S)-12,13,15-trihydroxy-4,6,10-trimethylhexadeca-2,4,6,8,10-pentaenoate], for which the cytotoxic effect entry with HeLa cell is reported as “no cytotoxic nor cytopathic effect”. Besides, the “CD62-L expression (MFI: mean fluorescence intensity) (D) % relative to control” value in series [1] (4 μM) is listed as 60%; in series [1] (8 μM), 70%. In addition, the IC50 in series [1] (T-cell) stood at 3700 nM; in series [4] (Homo sapiens), 3000 nM. In series [1] (at concentrations >4 μM), the “reduction of CD62-L expression” value is given as “significant reduction”. In addition, the “CD62-L expression (D): corresponding % of mycolactone activity (in brackets)” value in series [1] is listed as 0.8%. Also, the “Metabolic activity (MA: mean absorbance) (A) % relative to control” value came out at 0% in series [2] (0.4 μM, HeLa cells, 48 h, MTT); 0% in series [2] (4 μM, HeLa cells, 48 h, MTT); 0% in series [2] (8 μM, HeLa cells, 48 h, MTT). The cytopathic effect entry in series [2] (at concentrations <16 μM) was “no cytotoxic nor cytopathic effect”. Moreover, the “activity against inflammatory pain (global score of pain, late phase 10-40 min)” value in series [3] is “effective”. The “Cytokine production (M.A.: mean absorbance) (C) % relative to control” value in series [4] (0.4 μM) was 15%; in series [4] (4 μM), 58%; in series [4] (8 μM), 95%. Moreover, the “reduction of IL-2 production” value in series [4] (at concentrations >4 μM) is reported as “significant reduction”. The “Cytokine production (C): corresponding % of mycolactone activity (in brackets)” value in series [4] is given as 3.3%.
